Reference: PubChem BioAssay AID1963431 (Molecular Pharmacology Branch, DTP, NCI, 2024)
Where “and” joins values, the source holds several entries; their conditions need not be identical. Equal entries are not always repeated.

System: Rh18 complex spheroid viability, percent test/control
Assay: Anticancer human tumor Rh18 cell line growth inhibition [Asc];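 further: spheroids exposed to compound for 7 days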;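 on viability, T/C: 100% = DMSO vehicle control wells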
Conditions: for viability, T/C: stronger effect = lower value
Procedure, shortened: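 Stromal components (HUVEC and hMSC) are co-assembled with the cancer cells into multicellular spheroids. Drugs are then added singly or paired, at concentrations falling by half-log increments from a clinically achievable maximum, capped at 10 microM without known Cmax.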

[1] = curve of first compound, second compound 0.1 µM
[2] = curve of first compound, second compound 0.316 µM
[3] = curve of first compound, second compound 1 µM
[4] = second compound 0.1 µM, first compound 0.0316 µM
[5] = second compound 0.1 µM, first compound 0.1 µM
[6] = second compound 0.316 µM, first compound 0.0316 µM
[7] = second compound 0.316 µM, first compound 0.1 µM
[8] = second compound 1 µM, first compound 0.0316 µM
[9] = second compound 1 µM, first compound 0.1 µM
[10] = curve of first compound, second compound 3.16 µM
[11] = curve of first compound, second compound 10 µM
[12] = second compound 0.1 µM, first compound 0.316 µM
[13] = second compound 0.1 µM, first compound 1 µM
[14] = second compound 0.1 µM, first compound 3.16 µM
[15] = second compound 0.1 µM, first compound 10 µM
[16] = second compound 0.316 µM, first compound 0.316 µM
[17] = second compound 0.316 µM, first compound 1 µM
[18] = second compound 0.316 µM, first compound 3.16 µM
[19] = second compound 0.316 µM, first compound 10 µM
[20] = second compound 1 µM, first compound 0.316 µM
[21] = second compound 1 µM, first compound 1 µM
[22] = second compound 1 µM, first compound 3.16 µM
[23] = second compound 1 µM, first compound 10 µM
[24] = second compound 3.16 µM, first compound 0.0316 µM
[25] = second compound 3.16 µM, first compound 0.1 µM
[26] = second compound 3.16 µM, first compound 0.316 µM
[27] = second compound 3.16 µM, first compound 1 µM
[28] = second compound 3.16 µM, first compound 3.16 µM
[29] = second compound 3.16 µM, first compound 10 µM
[30] = second compound 10 µM, first compound 0.0316 µM
[31] = second compound 10 µM, first compound 0.1 µM
[32] = second compound 10 µM, first compound 0.316 µM
[33] = second compound 10 µM, first compound 1 µM
[34] = second compound 10 µM, first compound 3.16 µM
[35] = second compound 10 µM, first compound 10 µM

For `Cn1ncnc1[C@H]1c2n[nH]c(=O)c3cc(F)cc(c23)N[C@@H]1c1ccc(F)cc1` + CNC(C)C(=O)NC1CN(S(=O)(=O)c2cccc(S(=O)(=O)N3CCC4CCC(C(=O)NC(c5ccccc5)c5ccccc5)N4C(=O)C(NC(=O)C(C)NC)C3)c2)CCC2CCC(C(=O)NC(c3ccccc3)c3ccccc3)N2C1=O, the IC50 (curve of first compound, second compound 0.01 µM) was 3.74 nM, the IC50 (curve of first compound, second compound 0.0316 µM) was 1.53 nM and the IC50 [1] was less than 0.316 nM. It also gave an IC50 [2] of 0.406 nM, an IC50 [3] of 0.588 nM and a viability, T/C (second compound 0.01 µM, first compound 0.000316 µM) of 54.4%. For the same compound, the viability, T/C (second compound 0.01 µM, first compound 0.001 µM) was 64.3%, the viability, T/C (second compound 0.01 µM, first compound 0.00316 µM) was 53.5% and the viability, T/C (second compound 0.01 µM, first compound 0.01 µM) was 26.7%. The viability, T/C (second compound 0.01 µM, first compound 0.0316 µM) was 18.4%, the viability, T/C (second compound 0.01 µM, first compound 0.1 µM) was 19.2% and the viability, T/C (second compound 0.0316 µM, first compound 0.000316 µM) was 62.7%. For the same compound, the viability, T/C (second compound 0.0316 µM, first compound 0.001 µM) was 58.1%, the viability, T/C (second compound 0.0316 µM, first compound 0.00316 µM) was 36.5% and the viability, T/C (second compound 0.0316 µM, first compound 0.01 µM) was 23.1%. The viability, T/C (second compound 0.0316 µM, first compound 0.0316 µM) was 18.7%, the viability, T/C (second compound 0.0316 µM, first compound 0.1 µM) was 21.3% and the viability, T/C (second compound 0.1 µM, first compound 0.000316 µM) was 39.4%. It also gave a viability, T/C (second compound 0.1 µM, first compound 0.001 µM) of 47.7%, a viability, T/C (second compound 0.1 µM, first compound 0.00316 µM) of 34.6% and a viability, T/C (second compound 0.1 µM, first compound 0.01 µM) of 18%. The viability, T/C [4] was 14.8%, the viability, T/C [5] was 15% and the viability, T/C (second compound 0.316 µM, first compound 0.000316 µM) was 55.7%. It also gave a viability, T/C (second compound 0.316 µM, first compound 0.001 µM) of 29.6%, a viability, T/C (second compound 0.316 µM, first compound 0.00316 µM) of 25.5% and a viability, T/C (second compound 0.316 µM, first compound 0.01 µM) of 19.6%. For the same compound, the viability, T/C [6] was 12.4%, the viability, T/C [7] was 20% and the viability, T/C (second compound 1 µM, first compound 0.000316 µM) was 49.1%. It also gave a viability, T/C (second compound 1 µM, first compound 0.001 µM) of 51.2%, a viability, T/C (second compound 1 µM, first compound 0.00316 µM) of 42.9% and a viability, T/C (second compound 1 µM, first compound 0.01 µM) of 26.1%. It also gave a viability, T/C [8] of 18.4% and a viability, T/C [9] of 14.2%.

With `CNC(C)C(=O)NC1CN(S(=O)(=O)c2cccc(S(=O)(=O)N3CCC4CCC(C(=O)NC(c5ccccc5)c5ccccc5)N4C(=O)C(NC(=O)C(C)NC)C3)c2)CCC2CCC(C(=O)NC(c3ccccc3)c3ccccc3)N2C1=O` (configuration not stated) + CCN1C(C(=O)NC23CCC(C(=O)O)(CC2)CC3)C(c2cccc(Cl)c2F)C2(C(=O)Nc3cc(Cl)ccc32)C12CCCCC2 the IC50 (curve of first compound, second compound 0.03 µM) was less than 3.16 nM, the IC50 (curve of first compound, second compound 0.0949 µM) was less than 3.16 nM and the IC50 (curve of first compound, second compound 0.3 µM) was less than 3.16 nM. It also gave an IC50 (curve of first compound, second compound 0.949 µM) of less than 3.16 nM, an IC50 (curve of first compound, second compound 3 µM) of less than 3.16 nM and a viability, T/C (second compound 0.03 µM, first compound 0.00316 µM) of 30.1%. For the same compound, the viability, T/C (second compound 0.03 µM, first compound 0.01 µM) was 27.8%, the viability, T/C (second compound 0.03 µM, first compound 0.0316 µM) was 23.9% and the viability, T/C (second compound 0.03 µM, first compound 0.1 µM) was 18.8%. It also gave a viability, T/C (second compound 0.03 µM, first compound 0.316 µM) of 19.3%, a viability, T/C (second compound 0.03 µM, first compound 1 µM) of 17.5% and a viability, T/C (second compound 0.0949 µM, first compound 0.00316 µM) of 16.2%. For the same compound, the viability, T/C (second compound 0.0949 µM, first compound 0.01 µM) was 19.3%, the viability, T/C (second compound 0.0949 µM, first compound 0.0316 µM) was 16.2% and the viability, T/C (second compound 0.0949 µM, first compound 0.1 µM) was 16.8%. For the same compound, the viability, T/C (second compound 0.0949 µM, first compound 0.316 µM) was 13.7%, the viability, T/C (second compound 0.0949 µM, first compound 1 µM) was 16.5% and the viability, T/C (second compound 0.3 µM, first compound 0.00316 µM) was 13.8%. For the same compound, the viability, T/C (second compound 0.3 µM, first compound 0.01 µM) was 11%, the viability, T/C (second compound 0.3 µM, first compound 0.0316 µM) was 14.3% and the viability, T/C (second compound 0.3 µM, first compound 0.1 µM) was 12.4%. For the same compound, the viability, T/C (second compound 0.3 µM, first compound 0.316 µM) was 8.81%, the viability, T/C (second compound 0.3 µM, first compound 1 µM) was 10.8% and the viability, T/C (second compound 0.949 µM, first compound 0.00316 µM) was 10.8%. The viability, T/C (second compound 0.949 µM, first compound 0.01 µM) was 10%, the viability, T/C (second compound 0.949 µM, first compound 0.0316 µM) was 10.5% and the viability, T/C (second compound 0.949 µM, first compound 0.1 µM) was 9.19%. For the same compound, the viability, T/C (second compound 0.949 µM, first compound 0.316 µM) was 9.26%, the viability, T/C (second compound 0.949 µM, first compound 1 µM) was 10.8% and the viability, T/C (second compound 3 µM, first compound 0.00316 µM) was 10.8%. For the same compound, the viability, T/C (second compound 3 µM, first compound 0.01 µM) was 8.24%, the viability, T/C (second compound 3 µM, first compound 0.0316 µM) was 9.03% and the viability, T/C (second compound 3 µM, first compound 0.1 µM) was 9.34%. The viability, T/C (second compound 3 µM, first compound 0.316 µM) was 11.1% and the viability, T/C (second compound 3 µM, first compound 1 µM) was 10.5%.

For `O=C(c1cc(Cc2n[nH]c(=O)c3ccccc23)ccc1F)N1CCN(C(=O)C2CC2)CC1` + Cc1c(S(C)(=O)=O)c(-c2cc(F)cc(N3CCN(c4ccc(NS(=O)(=O)c5ccc(NC(CCN6CCC(C(=O)OCCCP(=O)(O)O)CC6)CSc6ccccc6)c(S(=O)(=O)C(F)(F)F)c5)cc4)CC3)c2)c(-c2ccc(Cl)cc2)n1C(C)C, the IC50 [1] was less than 31.6 nM, the IC50 [2] was less than 31.6 nM and the IC50 [3] was less than 31.6 nM. It also gave an IC50 [10] of less than 31.6 nM, an IC50 [11] of less than 31.6 nM and a viability, T/C [4] of 14.8%. For the same compound, the viability, T/C [5] was 14.2%, the viability, T/C [12] was 14.6% and the viability, T/C [13] was 17.6%. For the same compound, the viability, T/C [14] was 18.5%, the viability, T/C [15] was 13.5% and the viability, T/C [6] was 9.83%. It also gave a viability, T/C [7] of 9.85%, a viability, T/C [16] of 10.5% and a viability, T/C [17] of 10.7%. The viability, T/C [18] was 16.4%, the viability, T/C [19] was 9.72% and the viability, T/C [8] was 8.79%. For the same compound, the viability, T/C [9] was 10.4%, the viability, T/C [20] was 9.85% and the viability, T/C [21] was 8.8%. The viability, T/C [22] was 11%, the viability, T/C [23] was 8.8% and the viability, T/C [24] was 6.37%. For the same compound, the viability, T/C [25] was 7.47%, the viability, T/C [26] was 8.14% and the viability, T/C [27] was 5.82%. For the same compound, the viability, T/C [28] was 8%, the viability, T/C [29] was 7.02% and the viability, T/C [30] was 4.38%. The viability, T/C [31] was 4.61%, the viability, T/C [32] was 6.78% and the viability, T/C [33] was 4.36%. For the same compound, the viability, T/C [34] was 5.03% and the viability, T/C [35] was 5.76%.

In the case of `CCN1CCN(Cc2ccc(Nc3ncc(F)c(-c4cc(F)c5nc(C)n(C(C)C)c5c4)n3)nc2)CC1`, the viability, T/C (compound 0.00316 µM) is reported as 88.8% and 66.9% and 96.3%, the viability, T/C (compound 0.01 µM) is reported as 115% and 84.9% and 92.1% and the viability, T/C (compound 0.0316 µM) is reported as 85.2% and 77.4% and 70.8%. The viability, T/C (compound 0.1 µM) was 66.5% and 65.2% and 78.4%, the viability, T/C (compound 0.316 µM) was 85.7% and 111% and 72.7% and the viability, T/C (compound 1 µM) was 143% and 152% and 65.1%. The IC50 (curve of compound) was greater than 1000 nM.

`C#Cc1c(F)ccc2cc(O)cc(-c3ncc4c(N5CC6CCC(C5)N6)nc(OCC56CCCN5CC(F)C6)nc4c3F)c12` (configuration not stated) + Cc1c(S(C)(=O)=O)c(-c2cc(F)cc(N3CCN(c4ccc(NS(=O)(=O)c5ccc(NC(CCN6CCC(C(=O)OCCCP(=O)(O)O)CC6)CSc6ccccc6)c(S(=O)(=O)C(F)(F)F)c5)cc4)CC3)c2)c(-c2ccc(Cl)cc2)n1C(C)C was tested, and the IC50 [1] was less than 31.6 nM, the IC50 [2] was less than 31.6 nM and the IC50 [3] was less than 31.6 nM. For the same compound, the IC50 [10] was less than 31.6 nM, the IC50 [11] was less than 31.6 nM and the viability, T/C [4] was 14.1%. For the same compound, the viability, T/C [5] was 10.3%, the viability, T/C [12] was 12.1% and the viability, T/C [13] was 13%. For the same compound, the viability, T/C [14] was 15.7%, the viability, T/C [15] was 15.8% and the viability, T/C [6] was 11%. It also gave a viability, T/C [7] of 10.6%, a viability, T/C [16] of 10.8% and a viability, T/C [17] of 8.98%. The viability, T/C [18] was 10.4%, the viability, T/C [19] was 12.9% and the viability, T/C [8] was 8.64%. It also gave a viability, T/C [9] of 7.73%, a viability, T/C [20] of 8.18% and a viability, T/C [21] of 9.23%. For the same compound, the viability, T/C [22] was 8.77%, the viability, T/C [23] was 8.2% and the viability, T/C [24] was 6.12%. It also gave a viability, T/C [25] of 6.59%, a viability, T/C [26] of 5.52% and a viability, T/C [27] of 4.57%. The viability, T/C [28] was 5.64%, the viability, T/C [29] was 6.94% and the viability, T/C [30] was 5.81%. It also gave a viability, T/C [31] of 5.32%, a viability, T/C [32] of 2.97% and a viability, T/C [33] of 3.66%. It also gave a viability, T/C [34] of 2.62% and a viability, T/C [35] of 4.15%.
